Measured values as given in patent US10342221B2, “Generation of an inducible pericyte-specific CRE mouse model” (University of Southern California, priority 2016, dated 2019).
Like-named read-outs stand apart in the source and are kept apart here.

Columns and labels:
[1] = test system: pericytes expressing Cre-dependent diphtheria toxin receptor; type: in vivo, mouse; conditions: TAM-treated Pericyte-CreER; iDTR mice; DT 1 μg i.p. per day for 10 days; 3 days after DT; versus vehicle
hippocampal function = experiment: Behavioral tests: novel object location and contextual fear conditioning; type: in vivo, mouse
Method: Novel object location test was performed as the Inventors have previously reported. Animals were placed in a […] and allowed to habituate to the testing area for 10 min. Animals were then placed back in their cages and 2 identical approximately 5×5 cm objects were placed in the top left and right corner of the testing area. Animals were allowed to explore the two objects in the testing area for 5 min before being returned to their cages. After an hour interval one of the objects was relocated and the animals were allowed to explore the testing area once again for 3 min. After each trial, the testing area and the objects were thoroughly cleaned with 70% ethanol solution. All the trials, including habituation, were recorded with a high resolution camera and the amount of time each animal spent exploring the objects was analyzed. Any animals that presented a preference for either of the two identical objects, before replacement with the novel location, were eliminated from the analysis. Both male and female animals were used in the study.
Long-term memory formation paradigm in contextual fear conditioning was adapted from a previously described protocol with modifications. The experiment was performed using conditioning chamber made of plexiglas housed in a soundproof isolation cubicle and equipped with a stainless-steel grid floor connected to a solid-state shock scrambler. The scrambler was connected to an electronic constant-current shock source that was controlled via an interface connected to a computer running FreezeFrame software (Coulbourn Instruments, Allentown, Pa., USA). A digital camera was mounted on the steel ceiling and behavior was recorded. […] Hippocampus-dependent fear memory formation was evaluated by scoring freezing behavior (the absence of all movement except for respiration). Percentage of total freezing time was assessed using the automated FreezeFrame system with a threshold set at 10%. […]

[2] = test system: pericytes expressing Cre-dependent diphtheria toxin receptor
Method: (§1) Animals were sacrificed at 3 days post DT or vehicle treatment (FIG. 3A) or 15 days post DT or vehicle treatment (FIG. 4A) as indicated, and brains were collected and analyzed.
(§2) Animals were anesthetized with an i.p. injection of 100 mg/kg of ketamine and 50 mg/kg of 10 xylazine, and transcardially perfused first with 15 ml saline, followed by 20 ml of 4% paraformaldehyde (PFA) in PBS. Brains were removed, and post-fixed overnight at 4° C. before brain sections were cut at 30 μm thickness. Sections were blocked with 5% normal donkey serum (Vector Laboratories)/0.1% Triton-X/0.01M PBS and incubated with primary antibody diluted in blocking solution overnight at 4° C. […] To visualize brain microvessels, sections were incubated with Dylight 488-conjugated L. esculentum Lectin as the Inventors have previously reported. […] Sections were imaged with a Zeiss LSM 510 confocal laser-scanning microscope using a series of high-resolution optical sections (1,024×1,024-pixel format) that were captured with a 25× water-immersion objective, with 1× zoom at 1-μm step intervals for Z-stacks. Laser settings for gain, digital offset and laser intensity were kept standardized between different treatments and experiments. Z-stack projections and pseudo-coloring were performed using ZEN software (Carl Zeiss Microimaging), and image post-analysis were performed using ImageJ software.
Tissue was incubated for 30 min in 20 μg/ml Proteinase K and the In Situ Cell Death Detection Kit (Roche) was used per the manufacturer's instructions. Sections were coverslipped as described above. For each image, ten microns maximum projection z-stacks were reconstructed and analyzed using ImageJ. […] In each animal 5 randomly selected fields from the cortex were analyzed in 3 nonadjacent sections (˜100 μm apart). Three animals per group were analyzed.
The quantitative analysis of pericyte coverage and numbers was restricted to CD13-positive cells that were associated with brain capillaries defined as microvessels ≤6 μm in diameter, as previously described. The endothelial-specific Lycopersicon esculentum lectin was used to visualize endothelial vascular profiles, and CD13 coverage of brain capillaries was determined as CD13-positive area (percentage) occupying lectin-positive endothelial capillary profiles, as previously. For each image, ten microns maximum projection z-stacks were reconstructed and analyzed using ImageJ. Pericyte numbers were determined by counting the number of CD13-positive cell bodies on the abluminal side of the endothelial membrane (lectin) that co-localized with DAPI (4′,6-diamidino-2-phenylindole)-positive nuclei and tdTomato-positive cell bodies using the Image J Cell Counter plug-in, as the Inventors and others previously described. The number of pericytes was expressed per mm^2 of tissue.

[3] = test system: cerebral blood flow (CBF) response; experiment: Cerebral blood flow responses by laser-Doppler flowmetry
Method: as §1
Animals were initially anesthetized with 100 mg/kg of ketamine and 50 mg/kg of xylazine and were placed on a heating pad (37° C.). The cranium of the mouse was firmly secured in a stereotaxic frame. A high speed dental drill (tip FST 19007-05, Fine Science Tools Inc., Foster City, Calif.) was used to thin a square cranial window about 2×2 mm over the parietal cortex, and 45 degree forceps were used to remove the square piece of skull. Gelfoam (Pharmacia & Upjohn Company, Kalamazoo, Mass.) was applied immediately to control any cranial or dural bleeding. A sterile 5 mm glass cover slip was then placed on the dura mater and sealed with a 1:1 mixture of bone cement and cyanoacrylate based glue.
CBF responses to hindlimb stimulation in anesthetized mice (˜1% isoflurane) were determined using laser-Doppler flowmetry as previously described. The tip of the laser-Doppler probe (Transonic Systems Inc., Ithaca, N.Y.) was stereotaxically placed 0.5 mm above the cranial window over the hindlimb region of the primary somatosensory cortical area. CBF was recorded following electrical stimulation of the hind-limb using a 60 s long stimulus (7 Hz, 2 ms pulse duration). The percentage increase in CBF due to stimulation was obtained by subtracting the baseline CBF from the stable maximum plateau value reached during stimulus, and averaged over three trials per mouse. For CBF response to drug application, the LDF probe was placed stereotaxically over the center of an open cranial window (center at AP=−0.94 mm, L=1.5 mm). Drugs (10 μM Acetylcholine, and 400 μM Adenosine, all from Sigma) were superfused individually over the window, and responses recorded, as the Inventors reported previously. Arterial blood pressure was monitored continuously during the experiment. pH and blood gases were monitored before and after CBF recordings.

neurons = experiment: NeuN-positive neuron numbers and SMI-312 neuritic density
Method: as §1
Animals were anesthetized with an i.p. injection of 100 mg/kg of ketamine and 50 mg/kg of 10 xylazine, and transcardially perfused first with 15 ml saline, followed by 20 ml of 4% paraformaldehyde (PFA) in PBS. Brains were removed, and post-fixed overnight at 4° C. before brain sections were cut at 30 μm thickness. Sections were blocked with 5% normal donkey serum (Vector Laboratories)/0.1% Triton-X/0.01M PBS and incubated with primary antibody diluted in blocking solution overnight at 4° C. […] Sections were imaged with a Zeiss LSM 510 confocal laser-scanning microscope using a series of high-resolution optical sections (1,024×1,024-pixel format) that were captured with a 25× water-immersion objective, with 1× zoom at 1-μm step intervals for Z-stacks. Laser settings for gain, digital offset and laser intensity were kept standardized between different treatments and experiments. Z-stack projections and pseudo-coloring were performed using ZEN software (Carl Zeiss Microimaging), and image post-analysis were performed using ImageJ software.
For each image, ten microns maximum projection z-stacks were reconstructed and analyzed using ImageJ. NeuN-positive neurons were determined using the ImageJ Cell Counter analysis tool. In each animal, five randomly selected fields from the cortex and the hippocampus in three nonadjacent sections (˜100 μm apart) were analyzed. Six animals per group were analyzed.

blood-brain barrier = experiment: Blood-brain barrier integrity: extravascular IgG and fibrin deposits, ZO-1 tight junction length
Method: as §1, §2
For each image, ten microns maximum projection z-stacks were reconstructed and analyzed using ImageJ. The levels of extravascular blood-derived fibrin and IgG deposits indicating BBB breakdown were determined as previously described.
For each image, ten microns maximum projection z-stacks were reconstructed and analyzed using ImageJ. The length of ZO-1-positive tight junctions occupying lectin-positive capillary profiles was determined using the NeuronJ plugin for ImageJ, expressed as the length of ZO-1 (mm) over the lectin-positive capillary area (mm^2) as the Inventors have previously reported. ZO-1 and lectin stainings were performed as described above. The length of ZO1-positive tight junctions was normalized to the total area of lectin-positive microvessels using the Image J Area measurement tool.

[4] = control iDTR animals treated with TAM and DT
[5] = cortex, TAM-treated pericyte-CreER, iDTR mice, 3 days after DT compared to vehicle
[6] = TAM-treated pericyte-CreER, iDTR mice, 3 days after DT compared to vehicle
[7] = somatosensory cortex and hippocampus, respectively, 15 days after DT compared to vehicle

What does the source list for diphtheria toxin [DT]?
loss in DTR protein levels in brain capillaries [1]: 90%; loss of PDGFRβ protein in brain capillaries [1]: 60%; novel object location and fear conditioning (hippocampal function; TAM-treated pericyte-CreER, iDTR mice, 15 days after DT treatment): significant behavior deficits; novel object location and fear conditioning (hippocampal function; TAM-treated pericyte-CreER, iDTR mice, before treatment (0 d), 6 d of DT treatment, 3 days after last DT injection, versus vehicle): did not show deficits; novel object location and fear conditioning (hippocampal function; [4]): no differences; number of astrocytes, astrocytic endfeet coverage on microvessels or microglia density ([2]; 3 days after DT treatment): no changes were observed; pericyte coverage ([2]; TAM-treated control iDTR mice, same DT injection protocol): no changes in pericyte coverage; loss of tdTomato-positive pericytes in brain capillaries ([2]; cortex and hippocampus, 3 days after DT treatment compared to vehicle): 95%; pericyte cell death by TUNEL staining of perivascular tdTomato-positive nuclei ([2]; cortex, 3 days after DT compared to vehicle): contained fragmented DNA; reduction in pericyte capillary coverage (CD13 on lectin-positive profiles) [2, 5]: 50%; reduction in pericyte density (CD13-positive pericyte cell bodies) [2, 5]: 60%; reduction in pericyte density (CD13-positive pericyte cell bodies) ([2]; hippocampus, TAM-treated pericyte-CreER, iDTR mice, 3 days after DT compared to vehicle): 58%; CBF response in the presence of acetylcholine ([3]; 10 μM acetylcholine superfused, 3 days after DT treatment or vehicle): no difference in CBF response; CBF response in the presence of adenosine ([3]; 400 μM adenosine superfused, 3 days after DT treatment or vehicle): no difference in CBF response; reduction in CBF response to hind limb electrical stimulus [3, 6]: 50%; change in CBF responses ([3]; control iDTR animals that received TAM and DT treatment): No significant change; neuronal or neuritic changes (neurons; before DT treatment and 3 days after last DT injection compared to vehicle): No significant neuronal or neuritic changes; neuron counts and neuritic density (neurons; [4]): normal neuron counts and neuritic density; loss of NeuN-positive neuronal cell bodies (neurons; [7]): 20-25%; reduction in SMI-312-positive neuritic density (neurons; [7]): 30-40%; reduction in the ZO-1 length on brain capillaries (blood-brain barrier; [6]): 50%; BBB changes (blood-brain barrier; control iDTR animals that received TAM and DT): did not show any BBB changes; increase in fibrin deposits (blood-brain barrier; [5]): > 4 fold; increase in plasma-derived immunoglobulin G deposits (blood-brain barrier; [5]): > 4 fold; ZO-1 expression (blood-brain barrier; iDTR control animals treated with TAM and DT): No changes
